Measurements as given in patent US20230331779A1, “BISPECIFIC FUSION POLYPEPTIDE COMPOUND” (SHAANXI MICOT TECHNOLOGY CO., LTD., priority 2020, published 2023).
Read-outs that look alike come from different tables or passages of the source. One block for each compound: values may come before it.

What was measured:
[1] = test system: osteoblast MC3T3-E1 Subclone 4 cells; assay: CyQUANT in vitro proliferation of osteoblast cells; type: cell-based; details: FIG. 1; Example 1 effect more pronounced than that of OGP
Procedure: (§1) The CyQUANT cell proliferation detection kit was used to determine the in vitro proliferation effect of the polypeptide of Example 1 on osteoblast MC3T3-E1 Subclone 4 and fibroblast NIH/3T3 cells. Osteogenic growth peptide (OGP) was used as a positive control in the experiment. The polypeptide of Example 1 and OGP were prepared to the following concentrations: 10^−8 mol/L, 10^−9 mol/L, 10^−10 mol/L, 10^−11 mol/L, 10^−12 mol/L, 10^−13 mol/L, 10^−14 mol/L, 10^−15 mol/L and 10^−16 mol/L. 100 μL of medium was discarded from each well of the cell plate to be tested, and 100 μL of 2×CyQuant detection reagent was added to each well. The plate was then placed in a 37° C., 5% CO2 incubator for 60 min. Fluorescence values were read in bottom-reading mode with excitation and emission wavelengths of 480/535 nm.
(§2) % relative to Control=(reading value of compound well−reading value of blank control well)/(reading value of base control well−reading value of blank control well)×100

fibroblast NIH/3T3 cells = assay: CyQUANT in vitro proliferation of fibroblast cells; type: cell-based; details: FIG. 1; comparable effective dose for Example 1 and OGP
Procedure: as §1, §2

[2] = Effect of single intravenous injection on blood calcium in normal rats; type: in vivo, rat; details: for blood calcium level after a single intravenous bolus injection: normal SD rats
Procedure: (§3) Test method: SPF grade SD rats, weighing 250-280 g, were randomly divided into 7 groups, 6 administration groups and 1 blank control group (Vehicle=normal saline). The test samples were prepared into a solution with normal saline for administration. The test compound was administered by a single tail vein injection (1 mL/kg) at a dose of 0.5 mg/kg, 1.5 mg/kg and 4.5 mg/kg, respectively. Serum calcium (mmol/L) and phosphorus levels (mmol/L) were measured at 0 hour and at 4, 8 and 16 hours after administration.
(§4) Data processing: The concentrations of PTH, calcium and phosphorus in each group and at each time point were statistically analyzed using the graphpad 6.0 software.

[3] = Effect of single intravenous injection on blood phosphorus in normal rats; type: in vivo, rat; details: for blood phosphorus level after a single intravenous bolus injection: normal SD rats
Procedure: as §3, §4

[4] = Plasma PTH in 5/6 nephrectomy rats (secondary hyperparathyroidism model); type: in vivo, rat; details: 3.0 mg/kg s.c. three times a week
Procedure: Male SD rats were divided into a sham operation group and a 5/6 nephrectomy group (5/6Nx). Rats in the nephrectomy group underwent 5/6 nephrectomy, and were fed with high-phosphorus diet for two weeks after the operation to accelerate the induction of the secondary hyperparathyroidism rat model. After being fed with high-phosphorus diet for 3 weeks, the model rats were randomly divided into 6 groups, a 5/6Nx group (Vehicle), a positive control drug etelcalcetide group (3.0 mg/kg) and 4 groups of the compound of Example 1 (0.5, 1.0, 2.0, 4.0 mg/kg). The rats were administered subcutaneously three times a week for 6 consecutive weeks. Before the first administration, after the first administration, and 4 hours after administration in the 2nd, 4th, and 6th week, blood samples were collected from rats, and the plasma and serum were separated for the detection of the content of PTH in the plasma at each time point.

[5] = Cortical bone porosity in adenine-gavage SHPT rats (Micro CT of femur); type: in vivo, rat; details: 3.0 mg/kg s.c. three times a week for six weeks, Mean ± SEM
Procedure: According to the Yokozawz method, SD rats were given adenine gavage to establish an animal model of chronic renal failure, and fed with a high-phosphorus diet to induce a model of secondary hyperparathyroidism. Rats were fed until the end of the experiment, and model rats were screened according to the content of PTH in plasma. According to the PTH content and body weight, the model rats were randomly divided into 5 groups: a normal saline group, an etelcalcetide (3.0 mg/kg, dissolved in normal saline) group, 3 groups of Example 1 (1.0 mg/kg, 2.0 mg/kg and 4.0 mg/kg, dissolved in normal saline), and subcutaneously administered three times a week for six consecutive weeks at 1.0 ml/kg per rat. Six weeks later, the left femur of the rat was taken, the muscle and connective tissue were removed, and the femur was placed in a 4% formalin solution. Micro CT scanning was performed 24 hours later, and data was subjected analysis.

[6] = molecular target: T1, calcium-sensing receptor (CASR) (Homo sapiens, UniProt P41180); assay: CaSR activation, HTRF IP-1 competition method in HEK293-CaSR cells; type: cell-based
T1 construct: expressed in transfected cells; host or cells: HEK293-CaSR cells
T1 sequence (P41180 20-1078): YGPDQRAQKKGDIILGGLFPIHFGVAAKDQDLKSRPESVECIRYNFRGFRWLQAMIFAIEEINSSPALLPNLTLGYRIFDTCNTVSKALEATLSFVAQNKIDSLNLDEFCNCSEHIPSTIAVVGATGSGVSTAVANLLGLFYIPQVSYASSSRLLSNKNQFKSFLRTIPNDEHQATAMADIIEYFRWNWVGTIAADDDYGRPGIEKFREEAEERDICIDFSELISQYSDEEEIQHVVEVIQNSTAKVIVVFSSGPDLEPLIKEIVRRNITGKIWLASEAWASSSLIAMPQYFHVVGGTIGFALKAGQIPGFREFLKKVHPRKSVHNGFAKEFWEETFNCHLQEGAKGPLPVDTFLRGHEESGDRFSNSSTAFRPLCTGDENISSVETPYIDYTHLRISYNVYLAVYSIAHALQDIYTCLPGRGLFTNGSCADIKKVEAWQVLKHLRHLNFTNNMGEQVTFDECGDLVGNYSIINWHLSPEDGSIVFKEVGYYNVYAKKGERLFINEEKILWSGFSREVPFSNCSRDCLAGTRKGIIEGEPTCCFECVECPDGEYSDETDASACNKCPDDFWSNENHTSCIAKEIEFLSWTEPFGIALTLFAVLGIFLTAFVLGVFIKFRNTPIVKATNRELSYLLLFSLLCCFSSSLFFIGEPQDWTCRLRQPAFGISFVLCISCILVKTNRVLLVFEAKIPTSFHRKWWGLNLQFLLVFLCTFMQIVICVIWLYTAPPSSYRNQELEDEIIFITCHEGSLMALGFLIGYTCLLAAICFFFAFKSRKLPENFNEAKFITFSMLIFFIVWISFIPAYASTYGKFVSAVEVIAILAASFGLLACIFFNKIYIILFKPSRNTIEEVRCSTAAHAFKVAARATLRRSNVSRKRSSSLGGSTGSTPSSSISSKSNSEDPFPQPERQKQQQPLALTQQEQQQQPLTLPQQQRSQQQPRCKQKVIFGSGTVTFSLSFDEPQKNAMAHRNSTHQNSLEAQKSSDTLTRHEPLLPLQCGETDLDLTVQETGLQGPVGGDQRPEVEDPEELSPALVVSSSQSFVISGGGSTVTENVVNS
Source text: In the CaSR activation experiment, the Homogeneous Time-Resolved Fluorescence (HTRF) IP-1 (myolnositol 1 phosphate) competition method was used to detect the effect of the polypeptide of Example 1 on CaSR.

[7] = 0.5 mg/kg i.v., 0 h (before administration)
[8] = 1.5 mg/kg i.v., 0 h (before administration)
[9] = 4.5 mg/kg i.v., 0 h (before administration)

Compound: Osteogenic growth peptide [OGP]
- concentration that significantly stimulated proliferation of osteoblast MC3T3-E1 Subclone 4 cells [1]: 10^−8 to 10^−16 M
- concentration that significantly stimulates proliferation of fibroblast NIH3T3 cells (effective dose) (fibroblast NIH/3T3 cells): 10^−8 M

Compound: Example 2: Ac-D-Cys-D-Ala-D-Arg-D-Arg-D-Arg-D-Ala-D-Arg-NH2 linked by disulfide bond to H-D-Tyr-D-Arg-D-Phe-Gly-Gly-L-Cys-OH (CARRRAR; D-amino acids, Ac, NH2, disulfide-linked second peptide; MOD_RES (1)..(7) Cys, Ala and Arg are D-amino acids; MOD_RES (1)..(1) Cys is acetylated; MOD_RES (7)..(7) Arg is amidated; BINDING (1)..(1) Cys is linked ot Cys in SEQ ID NO 6 via disulfide bond)
- blood calcium level after a single intravenous bolus injection [2, 7]: 2.42 ± 0.02 mmol/L
- blood calcium level after a single intravenous bolus injection ([2]; 0.5 mg/kg i.v., 4 h): 2.05 ± 0.04 mmol/L
- blood calcium level after a single intravenous bolus injection ([2]; 0.5 mg/kg i.v., 8 h): 2.20 ± 0.02 mmol/L
- blood calcium level after a single intravenous bolus injection ([2]; 0.5 mg/kg i.v., 16 h): 2.27 ± 0.01 mmol/L
- blood calcium level after a single intravenous bolus injection [2, 8]: 2.41 ± 0.06 mmol/L
- blood calcium level after a single intravenous bolus injection ([2]; 1.5 mg/kg i.v., 4 h): 2.02 ± 0.06 mmol/L
- blood calcium level after a single intravenous bolus injection ([2]; 1.5 mg/kg i.v., 8 h): 1.84 ± 0.04 mmol/L
- blood calcium level after a single intravenous bolus injection ([2]; 1.5 mg/kg i.v., 16 h): 2.10 ± 0.03 mmol/L
- blood calcium level after a single intravenous bolus injection [2, 9]: 2.45 ± 0.02 mmol/L
- blood calcium level after a single intravenous bolus injection ([2]; 4.5 mg/kg i.v., 4 h): 1.79 ± 0.03 mmol/L
- blood calcium level after a single intravenous bolus injection ([2]; 4.5 mg/kg i.v., 8 h): 1.53 ± 0.03 mmol/L
- blood calcium level after a single intravenous bolus injection ([2]; 4.5 mg/kg i.v., 16 h): 1.64 ± 0.17 mmol/L
- blood calcium levels compared with the concentration before administration (in words) ([2]; normal rats, single tail vein bolus injection, each administration group, P≤0.01): decreased significantly
- time at which serum phosphorus level reached the highest ([3]; high-dose group (4.5 mg/kg)): 8 h
- time at which serum phosphorus level reached the highest ([3]; low-dose group (0.5 mg/kg and 1.5 mg/kg)): 4 h
- blood phosphorus level after a single intravenous bolus injection [3, 7]: 2.70 ± 0.06 mmol/L
- blood phosphorus level after a single intravenous bolus injection ([3]; 0.5 mg/kg i.v., 4 h): 2.78 ± 0.14 mmol/L
- blood phosphorus level after a single intravenous bolus injection ([3]; 0.5 mg/kg i.v., 8 h): 2.67 ± 0.06 mmol/L
- blood phosphorus level after a single intravenous bolus injection ([3]; 0.5 mg/kg i.v., 16 h): 2.49 ± 0.08 mmol/L
- blood phosphorus level after a single intravenous bolus injection [3, 8]: 2.65 ± 0.08 mmol/L
- blood phosphorus level after a single intravenous bolus injection ([3]; 1.5 mg/kg i.v., 4 h): 3.04 ± 0.08 mmol/L
- blood phosphorus level after a single intravenous bolus injection ([3]; 1.5 mg/kg i.v., 8 h): 3.05 ± 0.08 mmol/L
- blood phosphorus level after a single intravenous bolus injection ([3]; 1.5 mg/kg i.v., 16 h): 2.47 ± 0.06 mmol/L
- blood phosphorus level after a single intravenous bolus injection [3, 9]: 2.63 ± 0.02 mmol/L
- blood phosphorus level after a single intravenous bolus injection ([3]; 4.5 mg/kg i.v., 4 h): 3.31 ± 0.08 mmol/L
- blood phosphorus level after a single intravenous bolus injection ([3]; 4.5 mg/kg i.v., 8 h): 3.67 ± 0.1 mmol/L
- blood phosphorus level after a single intravenous bolus injection ([3]; 4.5 mg/kg i.v., 16 h): 2.49 ± 0.06 mmol/L
- effect on blood phosphorus concentration (in words) ([3]; normal rats, single tail vein bolus injection): increasing the blood phosphorus concentration

Compound: CC(=O)N[C@H](CSSC[C@H](N)C(=O)O)C(=O)N[C@H](C)C(=O)N[C@H](CCCNC(=N)N)C(=O)N[C@H](CCCNC(=N)N)C(=O)N[C@H](CCCNC(=N)N)C(=O)N[C@H](C)C(=O)N[C@H](CCCNC(=N)N)C(N)=O [Etelcalcetide, etelcalcetide]
- PTH change in plasma 4 h after administration ([4]; 2 weeks): −95.57 ± 0.28%
- PTH change in plasma 4 h after administration ([4]; 4 weeks): −93.81 ± 0.59%
- PTH change in plasma 4 h after administration ([4]; 6 weeks): −92.63 ± 0.77%
- PTH change in plasma 4 h after administration ([4]; first administration): −92.03 ± 0.67%
- Cortical bone porosity [5]: 4.13 ± 2.27%

- EC50 ([6]; Ca2+ concentration of 1.2 mM, read-out: EC50, agonistic activity on HEK293-CaSR cells): 84.7 µM
- EC50 ([6]; in the absence of Ca2+, read-out: EC50, agonist activity on HEK293-CaSR cells): 980 µM
Compound: CC(=O)N[C@H](CSSC[C@H](NC(=O)CNC(=O)CNC(=O)[C@@H](Cc1ccccc1)NC(=O)C(C)(C)NC(=O)[C@H](N)Cc1ccc(O)cc1)C(=O)O)C(=O)N[C@H](C)C(=O)N[C@H](CCCNC(=N)N)C(=O)N[C@H](CCCNC(=N)N)C(=O)N[C@H](CCCNC(=N)N)C(=O)N[C@H](C)C(=O)N[C@H](CCCNC(=N)N)C(N)=O [Example 1]
